Earlier results in US7588929B2, “Production of bacteriophage compositions for use in phage therapy” (Phage Biopharm LLC, priority 2002, dated 2009).

System: phage-2 inactivation by BI-LPS
Conditions: inactivation 95% in controls without sugar

Compound | concentration reducing inactivation to 50%
O=CC[C@@H](O)[C@H](O)[C@H](O)CO [2-deoxy-D-glucose] | 1 M
O=C[C@H](O)[C@@H](O)[C@@H](O)[C@H](O)CO [D-galactose] | about 1.4 M
N[C@H]1C(O)O[C@H](CO)[C@@H](O)[C@@H]1O (stereo partly drawn) [D-glucosamine] | 0.25-0.3 M
O=C[C@H](O)[C@@H](O)[C@H](O)[C@H](O)CO [D-glucose] | 1 M
O=C[C@@H](O)[C@@H](O)[C@H](O)[C@H](O)CO [D-mannose] | 1 M
O=C[C@H](O)[C@@H](O)[C@H](O)CO [D-xylose] | about 1.4 M
C[C@H](O)[C@H](O)[C@@H](O)[C@@H](O)C=O [L-rhamnose] | 1 M
CC(=O)N[C@H]1C(O)O[C@H](CO)[C@@H](O)[C@@H]1O (stereo partly drawn) [N-acetyl-D-glucosamine] | about 1.4 M
